Test results from the NIST ThermoML archive (doi:10.1016/j.jct.2013.02.017).

Assay: molar heat capacity at constant pressure
Conditions: 101.33 kPa, relaxation calorimetry - Quantum Design PPMS

O=P([O-])([O-])[O-].[Fe+3] [iron(III) phosphate]
molar heat capacity at constant pressure [J/K/mol]
Conditions	Crystal 1	Crystal 2
1 K	–	0.003782
1.886 K	–	0.04093
1.997 K	–	0.04782
2.181 K	–	0.0617
2.476 K	–	0.09126
2.736 K	–	0.127
3 K	–	0.18
3.028 K	–	0.1804
3.36 K	–	0.2601
3.752 K	–	0.3807
4 K	–	0.4766
4.187 K	–	0.5478
4.659 K	–	0.7673
4.845 K	–	0.8619
5 K	–	0.9387
5.18 K	–	1.047
5.77 K	–	1.391
6 K	–	1.539
6.414 K	–	1.814
6.798 K	–	2.084
7 K	–	2.22
7.132 K	–	2.309
7.933 K	–	2.865
8 K	–	2.913
8.77 K	–	3.466
8.832 K	–	3.516
9 K	–	3.635
10 K	–	4.367
10.05 K	–	4.403
11 K	–	5.121
11.15 K	–	5.235
12 K	–	5.897
12.38 K	–	6.189
12.94 K	–	6.616
13 K	–	6.67
13.73 K	–	7.26
14 K	–	7.443
14.43 K	–	7.762
14.95 K	–	8.294
15 K	–	8.323
15.43 K	–	8.719
15.94 K	–	9.181
16 K	–	9.243
16.43 K	–	9.674
16.95 K	–	10.23
17 K	–	10.28
17.45 K	–	10.8
17.84 K	–	11.2
18 K	–	11.49
18.13 K	–	11.71
18.45 K	–	12.08
18.82 K	–	12.45
19 K	–	12.58
19.22 K	–	12.73
19.66 K	–	13.2
19.99 K	–	13.49
20 K	–	13.57
20.25 K	–	13.97
20.64 K	–	14.43
20.82 K	–	14.73
21.1 K	–	15.1
21.5 K	–	15.55
21.71 K	–	16.04
21.92 K	–	16.34
22.11 K	–	16.68
22.32 K	–	17.08
22.51 K	–	17.48
22.73 K	–	17.86
22.92 K	–	18.38
23.11 K	–	18.7
23.36 K	–	19.34
23.55 K	–	19.72
23.76 K	–	20.25
23.95 K	–	20.84
24.15 K	–	21.42
24.38 K	–	21.93
24.61 K	–	22.61
24.87 K	–	23.08
25 K	23.11	23.11
25.08 K	23.28	–
25.18 K	22.8	–
25.4 K	21.44	–
25.43 K	20.48	–
25.62 K	18.26	–
25.68 K	17.59	–
25.72 K	17.26	–
25.94 K	15.76	–
25.99 K	15.49	–
26.15 K	14.92	–
26.41 K	14.37	–
26.94 K	13.87	–
27.46 K	13.73	–
27.94 K	13.72	–
28.45 K	13.76	–
28.97 K	13.89	–
29.45 K	14.01	–
29.98 K	14.01	–
30 K	14.02	–
30.99 K	14.13	–
32.01 K	14.38	–
33.01 K	14.68	–
34.02 K	15.04	–
35 K	15.41	–
35.05 K	15.43	–
36.05 K	15.83	–
37.06 K	16.23	–
38.07 K	16.64	–
39.08 K	17.07	–
40 K	17.52	–
40.08 K	17.53	–
41.1 K	17.99	–
42.11 K	18.43	–
43.12 K	18.88	–
44.12 K	19.31	–
45 K	19.76	–
45.14 K	19.79	–
46.14 K	20.26	–
47.17 K	20.76	–
48.16 K	21.23	–
49.19 K	21.7	–
50 K	22.04	–
50.22 K	22.15	–
53.7 K	23.85	–
55 K	24.35	–
59.64 K	26.61	–
60 K	26.66	–
65 K	28.97	–
66.28 K	29.55	–
70 K	31.26	–
73.59 K	32.72	–
75 K	33.49	–
80 K	35.67	–
81.69 K	36.3	–
85 K	37.77	–
90 K	39.9	–
90.72 K	40.16	–
95 K	42.03	–
100 K	44.11	–
100.73 K	44.09	–
110 K	48.06	–
110.86 K	47.98	–
120 K	51.77	–
120.94 K	51.73	–
130 K	55.28	–
131.04 K	55.47	–
140 K	58.62	–
141.13 K	58.97	–
150 K	61.85	–
151.25 K	62.31	–
160 K	64.98	–
161.4 K	65.71	–
170 K	68.05	–
171.44 K	68.87	–
180 K	71.06	–
181.6 K	71.84	–
190 K	74.02	–
191.71 K	74.76	–
200 K	76.93	–
201.83 K	77.69	–
210 K	79.79	–
211.94 K	80.42	–
220 K	82.59	–
222.06 K	83.12	–
230 K	85.33	–
232.15 K	85.84	–
240 K	88	–
242.24 K	88.09	–
250 K	90.6	–
252.28 K	90.69	–
260 K	93.11	–
262.36 K	92.91	–
270 K	95.55	–
272.53 K	95.97	–
273.15 K	96.3	–
280 K	97.9	–
282.61 K	99.14	–
290 K	100.17	–
292.62 K	101.41	–
298.15 K	101.96	–
300 K	102.35	–
302.73 K	102.84	–
